Laboratory results from patent US20250374926A1, “NOVEL DERIVATIVES OF NON-CODED AMINO ACIDS AND THEIR USE IN CROP PROTECTION” (FORTEPHEST LTD., priority 2022, published 2025).

Tests used:
Format in all cases: in vivo
Lettuce seeds = assay: Filter paper bioassay on germination and early development of Lettuce seeds; conditions: lowest concentration causing malformation of radicle or shoots, visually assessed six days after beginning, 0 to 1 mmol/l; for minimal effective concentration: 144 h, read-out: MEC, score (Minimal Effective Concentration, activity score) (converted)
Protocol: Materials: Seeds of Lettuce R. (Super-Jericho, non-sterilized) were obtained from Ben Shahar Moshe Ltd., 99% purity. The test compounds listed in Table 3 below were synthesized de novo or purchased from different vendors. Bioassays: Filter Paper Bioassays with Lettuce seeds were performed following Bertin et al. 2009 with modifications as described below. Seeds were placed on Whatman no. 1 filter paper (Whatman, Middlesex, U.K.) in Petri dishes (10 seeds per plate) with 2.0 ml of an aqueous solution of test material in a concentration ranging from 0 (control) to 1 mmol/l. The Petri dishes were arranged in a tray tilted at a 45-degree angle and were kept in the dark for 48 hours. Then trays with plates were transferred to the growth chamber with a 6/18 dark/light cycle for four days. Each experiment was performed in at least two repeats.
The development of plants' radicles and shoots was visually assessed six days after the beginning of the test to determine the Minimal Effective Concentration (MEC) of a test material. In the context of the invention, MEC is defined as the lowest concentration level of a test material that caused deviation (malformation of radicle or shoots).

Malva = assay: Post-emergence herbicidal effect on potted weeds; conditions: 2-3 true leaves, up to 5 mg/pot, scale 0 (dead plants) to 5 (healthy, as control)
Protocol: (§1) Weed seeds were sawn in 0.3-liter pots containing medium-heavy clay-loam soil from organic fields (55% clay, 23% silt, 20% sand, 2% organic matter, pH 7.1). The experiment was conducted in a completely randomized design. Each treatment was replicated three times (3 pots). Each compound was typically tested on a weed panel which included Amaranth, Abutilon, Malva, Silybum, and Sinapis. The herbicides were applied at doses from 0 (control) to 5 mg/pot. The herbicides were applied on grown plants at stage 2-3 true leaves (post-emergence treatment). The plants were grown in the mesh house during the entire experiment. Plant development at 6, 12, 19, 26, and 32 days after application (DAA) was evaluated on a scale of 0 to 5, in which 0 represents dead plants, and 5 represents healthy plants similar or not different from Control. In the context of the invention, the herbicidal effect was expressed as a score calculated as an average of assessments of plants' vigor, height, and leaf color.

Verbesina = assay: Post-emergence herbicidal effect on potted weeds; conditions: 2-3 true leaves, up to 5 mg/pot, scale 0 (dead plants) to 5 (healthy, as control)
Protocol: as §1

Silybum = assay: Post-emergence herbicidal effect on potted weeds; conditions: 2-3 true leaves, up to 5 mg/pot, scale 0 (dead plants) to 5 (healthy, as control)
Protocol: as §1

Solanum = assay: Post-emergence herbicidal effect on potted weeds; conditions: 2-3 true leaves, up to 5 mg/pot, scale 0 (dead plants) to 5 (healthy, as control)
Protocol: as §1

Amaranth = assay: Post-emergence herbicidal effect on potted weeds; conditions: 2-3 true leaves, up to 5 mg/pot, scale 0 (dead plants) to 5 (healthy, as control)
Protocol: as §1

Abutilon = assay: Post-emergence herbicidal effect on potted weeds; conditions: 2-3 true leaves, up to 5 mg/pot, scale 0 (dead plants) to 5 (healthy, as control)
Protocol: as §1

Lactuca = assay: Post-emergence herbicidal effect on potted weeds; conditions: 2-3 true leaves, up to 5 mg/pot, scale 0 (dead plants) to 5 (healthy, as control)
Protocol: as §1

Sinapis = assay: Post-emergence herbicidal effect on potted weeds; conditions: 2-3 true leaves, up to 5 mg/pot, scale 0 (dead plants) to 5 (healthy, as control)
Protocol: as §1

Trifolium = assay: Post-emergence herbicidal effect on potted weeds; conditions: 2-3 true leaves, up to 5 mg/pot, scale 0 (dead plants) to 5 (healthy, as control)
Protocol: as §1

Lettuce = assay: Post-emergence herbicidal effect on potted weeds; conditions: 2-3 true leaves, up to 5 mg/pot, scale 0 (dead plants) to 5 (healthy, as control)
Protocol: as §1

## CCOCCOCCOC(=O)COc1ccc(F)c(Br)n1 [compound 7156, 2-(2-ethoxyethoxy)ethyl 2-[(6-bromo-5-fluoropyridin-2-yl)oxy]acetate]
Lettuce seeds
  activity score: 5.5 score
Malva
  Average Herbicidal Effect, score: 1
Verbesina
  Average Herbicidal Effect, score: 1
Silybum
  Average Herbicidal Effect, score: 1
Solanum
  Average Herbicidal Effect, score: 0
Amaranth
  Average Herbicidal Effect, score: 1
Abutilon
  Average Herbicidal Effect, score: 1
Lactuca
  Average Herbicidal Effect, score: 2
Sinapis
  Average Herbicidal Effect, score: 1
Trifolium
  Average Herbicidal Effect, score: 2
Lettuce
  Average Herbicidal Effect, score: 0

## O=C(O)COc1ccc(F)c(Br)n1 [compound 7157, [(6-bromo-5-fluoropyridin-2-yl)oxy]acetic acid]
Lettuce seeds
  minimal effective concentration: 1 µM
Malva
  Average Herbicidal Effect, score: 1
Verbesina
  Average Herbicidal Effect, score: 0
Silybum
  Average Herbicidal Effect, score: 1
Solanum
  Average Herbicidal Effect, score: 0
Amaranth
  Average Herbicidal Effect, score: 0
Abutilon
  Average Herbicidal Effect, score: 3
Lactuca
  Average Herbicidal Effect, score: 2
Sinapis
  Average Herbicidal Effect, score: 1
Trifolium
  Average Herbicidal Effect, score: 2
Lettuce
  Average Herbicidal Effect, score: 1

## CCOC(=O)COc1ccc(F)c(Br)n1 [compound 7118, ethyl [(6-bromo-5-fluoropyridin-2-yl)oxy]acetate]
Lettuce seeds
  minimal effective concentration: < 1 µM
Malva
  Average Herbicidal Effect, score: 1
Verbesina
  Average Herbicidal Effect, score: 2
Silybum
  Average Herbicidal Effect, score: 1
Solanum
  Average Herbicidal Effect, score: 0
Amaranth
  Average Herbicidal Effect, score: 1
Abutilon
  Average Herbicidal Effect, score: 4
Lactuca
  Average Herbicidal Effect, score: 3
Sinapis
  Average Herbicidal Effect, score: 1
Trifolium
  Average Herbicidal Effect, score: 2
Lettuce
  Average Herbicidal Effect, score: 5
